Measured values reported in patent US12145899B2, “Deuterated analogs of acetyl-leucine” (INTRABIO LTD., priority 2018, dated 2024).

Key:
[1] = Pharmacokinetic study, plasma concentration after p.o. administration; type: in vivo, male BALB/c mice; details: for AUC(0-t) / Cmax: male, BALB/c, mouse, plasma, po, 100 mg/kg, male BALB/c mice; for ratio for AUClast, deuterated analyte/non-deuterated analyte / ratio for Cmax, deuterated analyte/non-deuterated analyte: mice
Protocol: Acetyl-leucine, acetyl-L-leucine, acetyl-leucine-2,3,3,4-d4 (1-rac), and acetyl-L-leucine-2,3,3,4-d4 (1) were administered to male BALB/c mice via the oral (p.o) route. Plasma and tissue samples were collected at predetermined time points and analysed using HR/MS.

NPC CHO cells = assay: NPC cellular phenotype assay: lysosomal volume by LysoTracker flow cytometry; type: cell-based, Chinese Hamster; details: for LysoTracker fluorescence, fold change relative to untreated samples (normalised as 1.0): NPC CHO cells, treated 7 days, Mean±SD, n=3, concentration of the compared values not printed in the legend (b616 names 1 mM)
Protocol: FIG. 1 is a line graph showing the effect of acetyl-leucine (referred to as IB1000) and acetyl-leucine-2,3,3,4-d4 (referred to as DIB1000) in a NPC cellular phenotype assay. NPC CHO cells were treated with 1, 10, 100, 1000, and 5000 μM of acetyl-leucine or acetyl-leucine-2,3,3,4-d4 for 7 days. Data shown is Mean±SD of 1-3 biological repeats. LysoTracker fluorescence is expressed as fold change relative to responses obtained from untreated samples (normalised as 1.0). Acetyl-leucine; 0.79±0.05, Acetyl-leucine-2,3,3,4-d4; 0.45±0.03, unpaired t test, Two-tailed test, **p<0.01, n=3. The technique applied in the present study is described in te Vruchte et al., J. Clin. Invest. 3:1320-1328 (2014). Briefly, human fibroblasts from patients with Tay-Sachs Disease, AB Variant were purchased from the NINDS Human Genetic Repository at the Coriell Institute, 403 Haddon Avenue, Camden, N.J., 08103, USA. Fibroblasts or Chinese Hamster Ovary cells were grown in T75 culture flasks, treated for 7 days with compounds, trypsinized, centrifuged (180 g, 5 min), washed twice with 1×PBS, centrifuged again and were stained with 1 ml of 100 nM LysoTracker-green DND-26 (Invitrogen) in PBS (10 min, in dark). Following incubation, cells were centrifuged (800 g, 5 min), resuspended in 0.5 ml of FACS buffer (0.1% BSA, 0.02 M NaN3 in 1×PBS) and kept on ice for a maximum of 1 h prior to flow cytometric analysis (BD Biosciences FACSCanto II or Accuri C6 Plus). The cytometer was calibrated using Cytometer Setup and Tracking beads (BD), and compensation was performed using cells stained with Lysotracker or Propidium Iodide using BD FACSDiva software (BD) or BD Accuri C6 Plus software (BD).

[2] = system: Tay-Sachs, AB Variant patient-derived fibroblast cells; assay: Tay-Sachs AB human fibroblast cell assay: lysosomal volume by LysoTracker flow cytometry; type: cell-based; details: for LysoTracker signal relative to untreated (1.00): Tay-Sachs AB Variant fibroblasts, 1 mM, 7 days, n=3
Protocol: FIG. 2 is bar graph showing the effect of acetyl-leucine (referred to as IB1000) and acetyl-leucine-2,3,3,4-d4 (referred to as DIB1000) in a Tay-Sachs AB human fibroblast cell assay. Tay-Sachs, AB Variant patient-derived fibroblast cells were treated with 1 mM acetyl-leucine or acetyl-leucine-2,3,3,4-d4 to compare LysoTracker signals. Untreated; 1.00±0.02, n=3, Acetyl-leucine; 0.97±0.01, n=3, Acetyl-leucine-2,3,3,4-d4; 0.91±0.02, n=3. One-way ANOVA was conducted for statistical analysis. */**p<0.003/0.02. The technique applied in the present study is described in te Vruchte et al., J. Clin. Invest. 3:1320-1328 (2014). Briefly, human fibroblasts from patients with Tay-Sachs Disease, AB Variant were purchased from the NINDS Human Genetic Repository at the Coriell Institute, 403 Haddon Avenue, Camden, N.J., 08103, USA. Fibroblasts or Chinese Hamster Ovary cells were grown in T75 culture flasks, treated for 7 days with compounds, trypsinized, centrifuged (180 g, 5 min), washed twice with 1×PBS, centrifuged again and were stained with 1 ml of 100 nM LysoTracker-green DND-26 (Invitrogen) in PBS (10 min, in dark). Following incubation, cells were centrifuged (800 g, 5 min), resuspended in 0.5 ml of FACS buffer (0.1% BSA, 0.02 M NaN3 in 1×PBS) and kept on ice for a maximum of 1 h prior to flow cytometric analysis (BD Biosciences FACSCanto II or Accuri C6 Plus). The cytometer was calibrated using Cytometer Setup and Tracking beads (BD), and compensation was performed using cells stained with Lysotracker or Propidium Iodide using BD FACSDiva software (BD) or BD Accuri C6 Plus software (BD).

[3] = plasma analyte after p.o. acetyl-L-leucine 100 mg/kg
[4] = plasma analyte after p.o. acetyl-leucine 100 mg/kg
[5] = deuterated or non-deuterated acetyl-L-leucine administered p.o. 100 mg/kg
[6] = deuterated or non-deuterated acetyl-leucine (racemate) administered p.o. 100 mg/kg
[7] = plasma analyte after p.o. acetyl-L-leucine-2,3,3,4-d4 (1) 100 mg/kg in saline
[8] = plasma analyte after p.o. acetyl-L-leucine-2,3,3,4-d4 (1) 100 mg/kg
[9] = plasma analyte after p.o. acetyl-leucine-2,3,3,4-d4 (1-rac) 100 mg/kg in saline
[10] = plasma analyte after p.o. acetyl-leucine-2,3,3,4-d4 (1-rac) 100 mg/kg

| AUC(0-t) [1, 3] [ng·h/mL] | AUC(0-t) [1, 4] [ng·h/mL] | ratio for AUClast, deuterated analyte/non-deuterated analyte [1, 5] | ratio for Cmax, deuterated analyte/non-deuterated analyte [1, 5] | ratio for AUClast, deuterated analyte/non-deuterated analyte [1, 6] | ratio for Cmax, deuterated analyte/non-deuterated analyte [1, 6] | Cmax [1, 7] [ng/mL] | AUC(0-t) [1, 8] [ng·h/mL] | Cmax [1, 9] [ng/mL] | AUC(0-t) [1, 10] [ng·h/mL] | SMILES | LysoTracker fluorescence, fold change relative to untreated samples (normalised as 1.0) (NPC CHO cells) [fold change] | LysoTracker signal relative to untreated (1.00) [2] | other results |
| --- | --- | --- | --- | --- | --- | --- | --- | --- | --- | --- | --- | --- | --- |
| 11400 | 2600 | – | – | – | – | – | – | – | – | CC(=O)N[C@@H](CC(C)C)C(=O)O [acetyl-L-leucine, N-acetyl-L-leucine, reference compound] | – | – | – |
| 573 | 57800 | – | – | – | – | – | – | – | – | CC(=O)N[C@H](CC(C)C)C(=O)O [acetyl-D-leucine, N-acetyl-D-leucine, reference compound] | – | – | – |
| – | – | 1.61 | 1.75 | 1.32 | 1.14 | 29300 | 18200 | 3880 | 3430 | [2H]C(C)(C)C([2H])([2H])[C@]([2H])(NC(C)=O)C(=O)O [acetyl-L-leucine-2,3,3,4-d4, Acetyl-L-leucine-2,3,3,4-d4] | – | – | – |

The remaining lines, values behind:

| SMILES | AUC(0-t) [1, 3] [ng·h/mL] | AUC(0-t) [1, 4] [ng·h/mL] | ratio for AUClast, deuterated analyte/non-deuterated analyte [1, 5] | ratio for Cmax, deuterated analyte/non-deuterated analyte [1, 5] | ratio for AUClast, deuterated analyte/non-deuterated analyte [1, 6] | ratio for Cmax, deuterated analyte/non-deuterated analyte [1, 6] | Cmax [1, 7] [ng/mL] | AUC(0-t) [1, 8] [ng·h/mL] | Cmax [1, 9] [ng/mL] | AUC(0-t) [1, 10] [ng·h/mL] | LysoTracker fluorescence, fold change relative to untreated samples (normalised as 1.0) (NPC CHO cells) [fold change] | LysoTracker signal relative to untreated (1.00) [2] | other results |
| --- | --- | --- | --- | --- | --- | --- | --- | --- | --- | --- | --- | --- | --- |
| [2H]C(C)(C)C([2H])([2H])[C@]([2H])(NC(C)=O)C(=O)O (racemic) [acetyl-leucine-2,3,3,4-d4, Acetyl-leucine-2,3,3,4-d4] | – | – | – | – | – | – | – | – | – | – | 0.45±0.03 | 0.91±0.02 | LysoTracker fluorescence level compared to acetyl-leucine (NPC CHO cells; NPC CHO cell line, 1 mM vs 1 mM acetyl-leucine): significant reduction; LysoTracker fluorescence level compared to acetyl-leucine ([2]; Tay-Sachs AB Variant human fibroblast cell line, 1 mM vs 1 mM acetyl-leucine): significant reduction |
| CC(=O)NC(CC(C)C)C(=O)O (racemic) [acetyl-leucine, N-acetyl-DL-leucine] | – | – | – | – | – | – | – | – | – | – | 0.79±0.05 | 0.97±0.01 | – |
| [2H]C(C)(C)C([2H])([2H])[C@@]([2H])(NC(C)=O)C(=O)O [acetyl-D-leucine-2,3,3,4-d4] | – | – | 5.50 | 7.40 | 1.72 | 0.59 | 3230 | 3150 | 50600 | 99600 | – | – | – |
